Results on 65 molecules are retold here after US10093678B2, “Azaspiro derivatives as TRPM8 antagonists” (RaQualia Pharma Inc., priority 2014, dated 2018).

pIC50: −log10 of the molar value. Bounds are passed on as bounds.

The target in the assay is T1, human TRPM8 (Homo sapiens, UniProt Q7Z2W7).
T1 construct: expressed in transfected cells; host or cells: HEK293
T1 sequence (Q7Z2W7 whole entry): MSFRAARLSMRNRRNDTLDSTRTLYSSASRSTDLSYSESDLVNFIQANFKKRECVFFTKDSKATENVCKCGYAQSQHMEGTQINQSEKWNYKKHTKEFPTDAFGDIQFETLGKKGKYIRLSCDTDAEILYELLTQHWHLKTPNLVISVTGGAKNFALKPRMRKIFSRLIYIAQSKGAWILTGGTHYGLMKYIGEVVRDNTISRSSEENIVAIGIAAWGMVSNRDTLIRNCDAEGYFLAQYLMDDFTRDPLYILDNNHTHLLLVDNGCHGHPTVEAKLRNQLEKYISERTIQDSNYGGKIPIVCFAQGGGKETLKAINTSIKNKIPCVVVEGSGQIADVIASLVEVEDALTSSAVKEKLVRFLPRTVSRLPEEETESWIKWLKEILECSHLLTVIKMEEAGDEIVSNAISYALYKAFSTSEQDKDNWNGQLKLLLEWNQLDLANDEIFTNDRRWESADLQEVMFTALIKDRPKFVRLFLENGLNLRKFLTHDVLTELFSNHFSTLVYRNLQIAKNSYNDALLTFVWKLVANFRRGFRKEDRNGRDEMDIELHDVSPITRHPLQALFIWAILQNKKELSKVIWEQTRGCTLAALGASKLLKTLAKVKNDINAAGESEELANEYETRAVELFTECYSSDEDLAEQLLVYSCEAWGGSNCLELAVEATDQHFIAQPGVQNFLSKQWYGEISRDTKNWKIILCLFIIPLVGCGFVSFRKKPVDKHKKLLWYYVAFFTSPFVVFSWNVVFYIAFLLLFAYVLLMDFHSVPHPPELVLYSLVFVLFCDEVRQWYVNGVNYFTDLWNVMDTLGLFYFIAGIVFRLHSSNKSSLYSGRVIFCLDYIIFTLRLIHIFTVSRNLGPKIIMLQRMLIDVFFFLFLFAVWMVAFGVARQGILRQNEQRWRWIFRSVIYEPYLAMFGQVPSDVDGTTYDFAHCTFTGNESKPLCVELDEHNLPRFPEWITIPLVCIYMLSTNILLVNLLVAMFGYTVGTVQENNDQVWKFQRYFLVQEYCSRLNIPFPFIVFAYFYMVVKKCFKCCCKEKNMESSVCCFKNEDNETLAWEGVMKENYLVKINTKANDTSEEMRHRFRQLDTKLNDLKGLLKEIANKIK
As to the kind of experiment: Menthol-induced Ca2+ influx in HEK293 cells stably expressing human TRPM8. In kind it is cell-based. The conditions noted are these: 30 microM menthol-induced Ca2+ influx, read-out: IC50 against TRPM8. The procedure, abridged:
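IC50 values were fitted from 11-point dose-response data averaged over duplicate wells. Compound was added for 5 min to Fluo4-loaded HEK293 cells carrying stable human TRPM8, in HBSS/HEPES pH 7.4 with probenecid. Intracellular Ca2+ change after 30 microM menthol addition was then imaged on FDSS.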
Consider `Cc1c(C(=O)CN2C(=O)NC3(CCC(F)(F)CC3)C2=O)nn(C)c1-c1cccnc1` [Example 4-7], for which the pIC50 was over 6.30.

Consider `Cc1ccncc1-c1ccc(C(=O)CN2C(=O)NC3(CCCCC3)C2=O)cn1` [Example 9-1], for which the negative-log IC50 (pIC50) was over 8.00.

Take `N#Cc1ccccc1-c1c(F)cc(C(=O)CN2C(=O)NC3(CCC(F)(F)CC3)C2=O)cc1F` [Example 13-31]: the pIC50 is over 7.00.

In the case of `O=C(CN1C(=O)NC2(CCC(F)(F)CC2)C1=O)c1ccc(-c2ccc3ccncc3c2)cc1` [Example 6-96], the negative-log IC50 (pIC50) is over 6.30.

As for `Cc1cccc(Oc2ccc(C(=O)CN3C(=O)NC4(CCC(F)(F)CC4)C3=O)cc2)n1` [Example 21-6], the pIC50 was over 6.30.

Regarding `N#Cc1ncccc1-c1ccc(C(=O)CN2C(=O)NC3(CCCCC3)C2=O)cc1` [Example 7-8], the pIC50 is over 7.00.

In the case of `Cc1cc2ccccc2n1-c1ccc(C(=O)CN2C(=O)NC3(CCC(F)(F)CC3)C2=O)cn1` [Example 19-12], the negative-log IC50 (pIC50) was over 7.00.

As for `O=C(CN1C(=O)NC2(CCC(F)(F)CC2)C1=O)c1ccc(-c2cnccc2C(F)(F)F)cc1` [Example 6-41], the negative-log IC50 (pIC50) was over 7.00.

With `COc1cc(C(=O)CN2C(=O)NC3(CCC(F)(F)CC3)C2=O)ccc1-c1cccc(F)c1` [Example 5-4], the pIC50 was over 6.30.

With `Cc1cc(C(=O)CN2C(=O)NC3(CCC(F)(F)CC3)C2=O)n(C)c1-c1cncnc1` [Example 16-16], the pIC50 was over 7.00.

Regarding `Cc1nc(C(=O)CN2C(=O)NC3(CCC(F)(F)CC3)C2=O)sc1-c1cccc(C(N)=O)c1` [Example 18-7], the pIC50 was over 6.30.

`Cc1nccnc1-c1ccc(C(=O)CN2C(=O)NC3(CCCCC3)C2=O)cc1` [Example 7-14]: the negative logarithm of the IC50 (pIC50) was over 7.00.

On to `Cn1c(C(=O)CN2C(=O)NC3(CCC(F)(F)CC3)C2=O)nc(C2CC2)c1-c1cccnc1` [Example 17-5], for which the pIC50 was over 7.00.

As to `Cc1ccccc1-c1ccc(C(=O)CN2C(=O)NC3(CCC(F)(F)CC3)C2=O)cn1` [Example 9-11], the pIC50 is over 8.00.

With `Cc1cc(C(=O)CN2C(=O)NC3(CCC(F)(F)CC3)C2=O)n(C)c1-c1cccnc1` [Example 16-11], the pIC50 is over 7.00.

Consider `Cc1nc(C(=O)CN2C(=O)NC3(CCC(F)(F)CC3)C2=O)sc1-c1cccnc1` [Example 18-1], for which the negative-log IC50 (pIC50) was over 7.00.

On to `Cc1cccc(-n2c(C)cc(C(=O)CN3C(=O)NC4(CCCCC4)C3=O)c2C)c1` [Example 3-6], for which the pIC50 was over 7.00.

Turning to `O=C(CN1C(=O)NC2(CCC(F)(F)CC2)C1=O)c1ccc(-c2ncccc2F)cc1` [Example 6-27], the negative logarithm of the IC50 (pIC50) is over 7.00.

Take `Cc1cccc(-n2c(C)cc(C(=O)CN3C(=O)NC4(CCCCCC4)C3=O)c2C)n1` [Example 3-14]: the pIC50 was over 7.00.

Turning to `O=C(CN1C(=O)NC2(CCC(F)(F)CC2)C1=O)c1ccc(-c2ccnc3ccccc23)nc1` [Example 9-18], the pIC50 was over 7.00.

Consider `N#Cc1cccc(-c2ccc(C(=O)CN3C(=O)NC4(CCCCC4)C3=O)cn2)c1` [Example 9-9], for which the pIC50 is over 7.00.

Take `Cc1nc(C(=O)CN2C(=O)NC3(CCC(F)(F)CC3)C2=O)sc1-c1ccccc1CO` [Example 18-4]: the pIC50 is over 7.00.

With `Cc1ccc2nc(CN3CCCCC3)n(-c3ccc(C(=O)CN4C(=O)NC5(CCC(F)(F)CC5)C4=O)cc3)c2n1` [Example 25-3], the negative logarithm of the IC50 (pIC50) is over 6.30.

For `O=C(CN1C(=O)NC2(CCC(F)(F)CC2)C1=O)c1ccc(-c2cccnc2CO)nc1` [Example 9-25], the negative logarithm of the IC50 (pIC50) was over 7.00.

Take `O=C(CN1C(=O)NC2(CCC(F)(F)CC2)C1=O)c1ccc(-c2nccc3[nH]ccc23)cc1` [Example 6-24]: the pIC50 was over 7.00.

For `Cn1c(C(=O)CN2C(=O)NC3(CCC(F)(F)CC3)C2=O)ccc1-c1cccnc1` [Example 16-3], the pIC50 is over 7.00.

For the molecule `Cc1cc(C(=O)CN2C(=O)NC3(CCC(F)(F)CC3)C2=O)c(C)n1-c1cncc2ccccc12` [Example 3-19], the pIC50 is over 7.00.

`Cc1ccnc(Oc2ccc(C(=O)CN3C(=O)NC4(CCC(F)(F)CC4)C3=O)cc2)c1` [Example 21-4]: the negative-log IC50 (pIC50) was over 6.30.

As to `O=C(CN1C(=O)NC2(CCC(F)(F)CC2)C1=O)c1ccc(-c2cccc3cccnc23)nc1` [Example 9-13], the pIC50 is over 7.00.

`Cc1nc(C(=O)CN2C(=O)NC3(CCC(F)(F)CC3)C2=O)n(C)c1-c1cccc2ccncc12` [Example 17-9]: the pIC50 is over 7.00.

With `Cc1cnc(-n2c(C)cc(C(=O)CN3C(=O)NC4(CCC(F)(F)CC4)C3=O)c2C)s1` [Example 3-17], the negative logarithm of the IC50 (pIC50) is over 7.00.

As to `O=C(CN1C(=O)NC2(CCCCC2)C1=O)c1ccc(-c2cccnc2)cc1` [Example 13-2], the negative logarithm of the IC50 (pIC50) is over 7.00.

`Cc1c(C(=O)CN2C(=O)NC3(CCC(F)(F)CC3)C2=O)cn(C)c1-c1cccc2ccncc12` [Example 16-27]: the negative logarithm of the IC50 (pIC50) was over 7.00.

`Nc1cccnc1-c1ccc(C(=O)CN2C(=O)NC3(CCC(F)(F)CC3)C2=O)cc1` [Example 6-80]: the pIC50 was over 6.30.

As to `O=C(CN1C(=O)NC2(CCCCC2)C1=O)c1ccc(-c2cccnc2)cc1F` [Example 13-18], the pIC50 was over 7.00.

`Cc1cc(C(=O)CN2C(=O)NC3(CCC(F)(F)CC3)C2=O)n(C)c1-c1cncc(C(N)=O)c1` [Example 16-33]: the negative logarithm of the IC50 (pIC50) was over 6.30.

With `O=C(CN1C(=O)NC2(CCC(F)(F)CC2)C1=O)c1ccc(-c2cccc3[nH]ncc23)cc1` [Example 13-40], the pIC50 was over 7.00.

`Cc1nc(C(=O)CN2C(=O)NC3(CCC(F)(F)CC3)C2=O)c(C)n1-c1cccc(F)c1` [Example 2-11]: the negative-log IC50 (pIC50) was over 7.00.

Regarding `O=C(CN1C(=O)NC2(CCC(F)(F)CC2)C1=O)c1ccc(-n2c(=O)oc3ccccc32)nc1` [Example 19-14], the pIC50 was over 8.00.

Regarding `Cc1ccncc1-c1c(C)cc(C(=O)CN2C(=O)NC3(CCC(F)(F)CC3)C2=O)n1C` [Example 16-10], the pIC50 is over 7.00.

As to `N#Cc1cccc(-c2c(F)cc(C(=O)CN3C(=O)NC4(CCC(F)(F)CC4)C3=O)cc2F)c1` [Example 13-33], the negative-log IC50 (pIC50) was over 6.30.

Take `Cn1nccc1-c1ccc(C(=O)CN2C(=O)NC3(CCCCC3)C2=O)cc1` [Example 7-6]: the pIC50 is over 7.00.

In the case of `Cc1cccc(-n2c(C)cc(C(=O)CN3C(=O)NC4(CCC(C(F)(F)F)CC4)C3=O)c2C)n1` (centres unmarked) [Example 3-15], the pIC50 was over 7.00.

Regarding `O=C(CN1C(=O)NC2(CCC(F)(F)CC2)C1=O)c1ccc(-c2cncc3[nH]ccc23)nc1` [Example 9-23], the pIC50 was over 7.00.

As for `N#Cc1nccnc1-c1ccc(C(=O)CN2CC3(CCC(F)(F)CC3)OC2=O)cc1` [Example 7-15], the pIC50 was over 6.30.

In the case of `N#Cc1ccccc1Cc1ccc(C(=O)CN2C(=O)NC3(CCC(F)(F)CC3)C2=O)cc1` [Example 6-120], the negative logarithm of the IC50 (pIC50) is over 6.30.

Turning to `O=C(CN1C(=O)NC2(CCCCC2)C1=O)c1ccc(-c2ccccc2CO)nc1` [Example 9-5], the pIC50 is over 7.00.

Turning to `O=C(CN1C(=O)NC2(CCC(F)(F)CC2)C1=O)c1ccc(-n2ncc3ccccc32)cc1` [Example 5-6], the negative-log IC50 (pIC50) is over 7.00.

On to `O=C(CN1C(=O)NC2(CCC(F)(F)CC2)C1=O)c1ccc(-c2cnc3cccnn23)cc1` [Example 6-116], for which the pIC50 is over 7.00.

For `O=C(CN1C(=O)NC2(CCC(F)(F)CC2)C1=O)c1ccc(-c2cccc3cnccc23)nc1` [Example 9-21], the negative logarithm of the IC50 (pIC50) was over 7.00.

Consider `O=C(CN1C(=O)NC2(CCC(F)(F)CC2)C1=O)c1ccc(-n2cnc3ccccc32)nc1` [Example 5-12], for which the negative-log IC50 (pIC50) was over 7.00.

In the case of `Nc1cnccc1-c1ccc(C(=O)CN2C(=O)NC3(CCC(F)(F)CC3)C2=O)cc1` [Example 6-113], the pIC50 is over 6.30.

With `O=C(CN1CC2(CCC(F)(F)CC2)OC1=O)c1ccc(-c2cccnc2CO)cc1` [Example 7-18], the negative logarithm of the IC50 (pIC50) was over 6.30.

Take `NCc1ccncc1-c1ccc(C(=O)CN2C(=O)NC3(CCC(F)(F)CC3)C2=O)cc1` [Example 6-58, 3-(2-(4-(4-(aminomethyl)pyridin-3-yl)phenyl)-2-oxoethyl)-8,8-difluoro-1,3-diazaspiro[4.5]decane-2,4-dione]: the pIC50 was over 7.00.

For `Cc1cc(C(=O)CN2C(=O)NC3(CCC(F)(F)CC3)C2=O)n(C)c1-c1cccc2[nH]ncc12` [Example 16-35], the negative-log IC50 (pIC50) was over 6.30.

Take `NCc1nc2ccccc2n1-c1ccc(C(=O)CN2C(=O)NC3(CCC(F)(F)CC3)C2=O)cc1` [Example 5-16, 3-(2-(4-(2-(aminomethyl)-1H-benzo[d]imidazol-1-yl)phenyl)-2-oxoethyl)-8,8-difluoro-1,3-diazaspiro[4.5]decane-2,4-dione]: the negative-log IC50 (pIC50) was over 6.30.

Take `Cc1ccc2[nH]c(=O)n(-c3ccc(C(=O)CN4C(=O)NC5(CCC(F)(F)CC5)C4=O)cc3)c2n1` [Example 23-2, 8,8-difluoro-3-(2-(4-(5-methyl-2-oxo-1H-imidazo[4,5-b]pyridin-3(2H)-yl)phenyl)-2-oxoethyl)-1,3-diazaspiro[4.5]decane-2,4-dione]: the pIC50 is over 7.00.

As to `COc1ccncc1-c1cnc(C(=O)CN2C(=O)NC3(CCC(F)(F)CC3)C2=O)cn1` [Example 12-5], the negative-log IC50 (pIC50) was over 7.00.

Turning to `Cc1cc(C(=O)CN2C(=O)NC3(CCCCC3)C2=O)sc1-c1ccccc1CO` [Example 14-2], the pIC50 was over 7.00.

With `Cc1ccccc1-c1c(C)sc(C(=O)CN2C(=O)NC3(CCC(F)(F)CC3)C2=O)c1C` [Example 15-9], the negative logarithm of the IC50 (pIC50) was over 6.30.

Consider `O=C(CN1C(=O)NC2(CCC(F)(F)CC2)C1=O)c1ccc(-c2cnccc2CO)c(F)c1` [Example 8-2], for which the pIC50 is over 7.00.

As for `Cc1ncccc1-c1c(C)c(C(=O)CN2C(=O)NC3(CCC(F)(F)CC3)C2=O)cn1C` [Example 16-28], the pIC50 was over 6.30.

For `O=C(CN1C(=O)NC2(CCC(F)(F)CC2)C1=O)c1ccc(-n2ccc3cccnc32)nc1` [Example 19-10], the pIC50 was over 7.00.

`O=C(CN1C(=O)NC2(CCC(F)(F)CC2)C1=O)c1ccc(N2C(=O)COc3ccccc32)cc1` [Example 19-21]: the pIC50 is over 7.00.

On to `O=C(CN1C(=O)NC2(CCC(F)(F)CC2)C1=O)c1ccc(-n2c(=O)oc3ccccc32)cc1` [Example 19-30], for which the negative-log IC50 (pIC50) is over 8.00.

Usually pIC50 stands for the IC50 on a negative log10 scale, so that one unit is a factor of ten.
